Broadly, the IC50 is the concentration that gives 50% inhibition.

This is an account of results in paper PMC5478271, “Chemical structure-guided design of dynapyrazoles, cell-permeable dynein inhibitors with a unique mode of action” (eLife, 2017).

The assay has as its target T1, human cytoplasmic dynein 2 (GFP-dynein 2, amino acids 1091–4307) (Homo sapiens, UniProt Q8NCM8).
T1 construct: (AA 1091–4307, uniprot: Q8NCM8); protein A tag (followed by TEV-cleavable linker) (N, cleaved yes); made in house; host or cells: Sf9 insect cells (baculovirus)
Kind of assay: Microtubule gliding (motility) assay with GFP-dynein 2. The format is biochemical. To be noted: for Velocity of dynein-2-driven microtubule gliding: 20 µM compound, solvent control 128 ± 14 nm/s, mean ± S.D.; for Velocity of dynein-2-driven microtubule gliding / IC50: 1 mM MgATP, 0.05 mg/mL casein, 2% DMSO; for IC50: read-out: IC50, inhibition of GFP-dynein-2-driven motility. How it is done:
We purified an N-terminally GFP-tagged motor-domain construct of dynein 2 using an insect cell expression system ([Schmidt et al., 2015]). The GFP tag in this construct (GFP-dynein 2, amino acids 1091–4307) allowed the motor protein to be immobilized on passivated glass coverslips used in microtubule gliding assays. GFP-dynein 2 was obtained as a mono-disperse peak by gel filtration (Figure 2D and E). In the presence of ATP (1 mM), this protein moved microtubules with a velocity of 128 ± 14 nm/s (mean ± SD, Figure 2G and I).
Reaction setup: A coverslip-based motility assay was adapted from similar assays reported previously ([Firestone et al., 2012]; [Schmidt et al., 2015]). A flow chamber assembled on a pre-cleaned microscope coverslide (3–5 µL chamber volume) was hydrated with buffer A (25 mM PIPES, 30 mM KCl, 5 mM MgCl2, 1 mM EGTA, 0.01% Triton X-100, 1 mM DTT, 20 µM taxol, pH 7.0 with KOH). Anti-GFP antibody (0.4 mg/mL, affinity purified rabbit antibody) was flowed into the chamber and allowed to adhere non-specifically to the glass for 20 s. The surface was blocked using 0.5 mg/mL α-casein in buffer A. Excess protein was then washed away with buffer A. GFP-dynein motor domain was diluted in buffer A supplemented with 1 mM DTT and 0.1 mM ATP (2 mM DTT final; GFP-dynein 2 diluted to: 180 nM; GFP-dynein 1 diluted to: 60 nM), flowed into the chamber and allowed to bind for 20 s. Excess protein was washed away with buffer A. Reaction mix (25 mM PIPES, 90 mM KCl, 6 mM MgCl2, 1 mM EGTA, 0.01% Triton X-100, 3 mM DTT, 20 µM taxol, 1 mM ATP, 1x oxygen scavenging system components [4.5 mg/mL glucose, 35 µg/mL catalase, 200 µg/mL glucose oxidase], 2% final DMSO [v/v] with compounds at appropriate concentrations, 0.05 mg/mL α-casein, microtubules [rhodamine labeled, purified from bovine brain, GMP-CPP and Taxol-stabilized], pH 7.0 with KOH) was flowed into the chamber using ~4 chamber volumes. For experiments shown in Figure 4—figure supplement 1, α-casein concentration in reaction mix was 0.5 mg/mL and all other parameters were held constant.
For reversibility experiments, motility in the presence of 5 µM 8 was observed as above, and upon completion of imaging, the chamber, fresh buffer A supplemented with 1 mM ATP was flowed into the chamber and incubated for 1 min; this wash and incubation cycle was repeated twice. Reaction mix containing DMSO (no compound) was flowed into the chamber using ~4 chamber volumes. The chamber was sealed with valap and returned to the microscope.
Microscopy conditions: Following addition of reaction mix, microtubules were allowed to bind for 5 min before imaging. For reversibility experiments, microtubules were allowed to bind for 10 min before imaging. Videos were taken on a Zeiss Axiovert 200M wide-field microscope equipped with a Zeiss 100x/1.45 NA α-Plan-Fluar objective. Data were captured with an EM-CCD camera (iXon DU-897, Andor Technology) with a 0.2 s exposure time and frame rate of 0.25–0.5/second. Four 10–20 s videos were captured per experimental condition. Velocities were measured using the kymograph tool in FIJI ([Schindelin et al., 2012]). Data analysis is discussed below under ‘General data analysis procedures.’
Microtubule velocity measurements: the tracks of microtubules were traced and converted to kymographs (x axis-displacement, y axis-time) using the kymograph function of FIJI (RRID: SCR_002285). The angle formed between an edge of a microtubule and the horizontal was measured. This angle, θ, was converted into velocity using the following relationship: velocity = 1/|tangent(θ)| * (unit pixel distance)/(time interval between frames).
The calibrated pixel distance was 0.152 µm and the time interval between frames was either 2 or 4 s. The velocities of at least seven microtubules were measured per field of view, if sufficient tracks could be found. In cases where fewer than seven microtubules were found in a field of view, velocities of all microtubules on the coverslip were measured. […]

T1 sequence (Q8NCM8 1091-4307): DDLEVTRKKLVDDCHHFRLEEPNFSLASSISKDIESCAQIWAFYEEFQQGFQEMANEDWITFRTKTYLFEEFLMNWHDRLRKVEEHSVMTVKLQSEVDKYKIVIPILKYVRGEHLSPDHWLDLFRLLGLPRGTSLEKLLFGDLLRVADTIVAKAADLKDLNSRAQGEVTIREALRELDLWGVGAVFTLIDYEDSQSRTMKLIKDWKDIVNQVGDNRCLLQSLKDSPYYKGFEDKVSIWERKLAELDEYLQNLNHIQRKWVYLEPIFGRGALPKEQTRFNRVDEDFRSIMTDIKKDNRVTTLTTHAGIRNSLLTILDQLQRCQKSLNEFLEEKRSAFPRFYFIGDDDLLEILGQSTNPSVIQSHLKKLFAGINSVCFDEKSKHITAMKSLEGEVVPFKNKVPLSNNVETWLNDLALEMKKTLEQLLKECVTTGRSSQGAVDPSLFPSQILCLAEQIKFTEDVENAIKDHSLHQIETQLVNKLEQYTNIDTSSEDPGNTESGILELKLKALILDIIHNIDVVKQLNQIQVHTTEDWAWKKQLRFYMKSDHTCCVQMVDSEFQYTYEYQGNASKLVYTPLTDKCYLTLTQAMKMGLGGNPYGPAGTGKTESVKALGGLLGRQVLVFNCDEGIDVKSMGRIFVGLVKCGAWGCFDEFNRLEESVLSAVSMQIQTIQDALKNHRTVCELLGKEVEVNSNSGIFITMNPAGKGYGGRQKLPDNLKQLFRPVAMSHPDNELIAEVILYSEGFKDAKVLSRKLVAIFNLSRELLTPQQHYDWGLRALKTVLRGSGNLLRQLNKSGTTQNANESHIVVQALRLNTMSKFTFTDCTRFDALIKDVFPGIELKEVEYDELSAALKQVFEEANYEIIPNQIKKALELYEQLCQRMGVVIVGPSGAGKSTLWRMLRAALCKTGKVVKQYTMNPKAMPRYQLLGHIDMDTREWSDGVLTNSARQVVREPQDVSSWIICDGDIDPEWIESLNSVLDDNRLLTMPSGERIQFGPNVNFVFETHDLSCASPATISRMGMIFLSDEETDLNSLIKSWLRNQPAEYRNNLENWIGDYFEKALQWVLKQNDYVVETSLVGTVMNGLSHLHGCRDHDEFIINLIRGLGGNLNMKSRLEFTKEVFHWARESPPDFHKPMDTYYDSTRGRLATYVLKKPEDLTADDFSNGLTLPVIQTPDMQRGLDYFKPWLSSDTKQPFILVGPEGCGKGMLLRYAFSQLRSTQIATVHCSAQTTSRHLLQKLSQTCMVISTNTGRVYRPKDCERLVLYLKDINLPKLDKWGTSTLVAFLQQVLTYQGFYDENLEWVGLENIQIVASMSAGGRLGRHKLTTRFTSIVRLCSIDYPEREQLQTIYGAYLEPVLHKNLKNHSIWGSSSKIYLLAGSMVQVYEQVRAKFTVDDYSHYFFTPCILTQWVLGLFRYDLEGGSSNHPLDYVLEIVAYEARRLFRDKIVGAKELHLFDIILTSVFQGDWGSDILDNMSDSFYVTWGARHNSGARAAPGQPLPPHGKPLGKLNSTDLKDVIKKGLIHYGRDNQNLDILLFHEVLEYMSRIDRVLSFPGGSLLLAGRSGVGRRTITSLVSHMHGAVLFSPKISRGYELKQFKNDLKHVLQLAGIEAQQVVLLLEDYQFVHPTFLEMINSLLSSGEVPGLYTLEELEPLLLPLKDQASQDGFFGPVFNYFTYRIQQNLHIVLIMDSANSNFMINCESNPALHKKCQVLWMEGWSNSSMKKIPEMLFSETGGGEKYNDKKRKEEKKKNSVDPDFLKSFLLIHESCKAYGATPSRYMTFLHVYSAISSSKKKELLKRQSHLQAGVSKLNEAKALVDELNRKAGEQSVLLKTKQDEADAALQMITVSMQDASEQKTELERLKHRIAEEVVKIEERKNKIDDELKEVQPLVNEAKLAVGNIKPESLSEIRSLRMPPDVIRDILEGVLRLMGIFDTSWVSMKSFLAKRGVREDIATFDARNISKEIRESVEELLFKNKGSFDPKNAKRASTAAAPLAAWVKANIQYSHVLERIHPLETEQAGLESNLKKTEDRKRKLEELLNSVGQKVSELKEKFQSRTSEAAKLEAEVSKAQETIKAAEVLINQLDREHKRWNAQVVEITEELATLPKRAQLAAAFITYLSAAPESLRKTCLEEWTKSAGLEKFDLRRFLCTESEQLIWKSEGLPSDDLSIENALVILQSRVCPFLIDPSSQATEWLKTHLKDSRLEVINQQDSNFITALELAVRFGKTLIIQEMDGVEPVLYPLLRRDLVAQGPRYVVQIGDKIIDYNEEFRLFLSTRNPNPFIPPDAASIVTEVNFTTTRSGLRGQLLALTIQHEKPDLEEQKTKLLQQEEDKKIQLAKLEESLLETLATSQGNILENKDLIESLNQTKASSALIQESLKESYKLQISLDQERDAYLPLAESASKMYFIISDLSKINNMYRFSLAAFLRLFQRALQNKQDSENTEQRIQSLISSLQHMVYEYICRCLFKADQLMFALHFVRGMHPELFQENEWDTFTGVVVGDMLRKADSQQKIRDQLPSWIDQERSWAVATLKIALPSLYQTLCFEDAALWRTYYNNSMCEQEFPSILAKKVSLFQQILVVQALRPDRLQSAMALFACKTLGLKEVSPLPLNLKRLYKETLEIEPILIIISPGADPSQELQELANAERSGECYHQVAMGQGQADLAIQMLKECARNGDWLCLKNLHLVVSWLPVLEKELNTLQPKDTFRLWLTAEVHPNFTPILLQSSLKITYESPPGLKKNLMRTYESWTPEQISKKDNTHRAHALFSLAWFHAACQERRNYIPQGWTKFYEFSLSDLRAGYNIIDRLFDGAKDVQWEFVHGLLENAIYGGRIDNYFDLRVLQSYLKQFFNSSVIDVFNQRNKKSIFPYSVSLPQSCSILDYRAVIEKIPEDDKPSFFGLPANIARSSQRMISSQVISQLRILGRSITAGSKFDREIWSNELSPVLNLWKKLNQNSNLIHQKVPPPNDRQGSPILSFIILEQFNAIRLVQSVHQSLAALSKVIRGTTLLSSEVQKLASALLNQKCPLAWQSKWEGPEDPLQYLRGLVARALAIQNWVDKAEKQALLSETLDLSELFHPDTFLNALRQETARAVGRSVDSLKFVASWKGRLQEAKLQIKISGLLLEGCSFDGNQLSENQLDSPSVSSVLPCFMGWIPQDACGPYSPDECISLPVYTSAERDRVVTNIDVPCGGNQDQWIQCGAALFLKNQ

For `N#Cc1c(-c2ccc(Cl)cc2Cl)cn2c1[nH]c(=O)c1ccccc12` [Compound 2, 2-(2,4-dichlorophenyl)-5-oxo-4H-pyrrolo[1,2-a]quinazoline-3-carbonitrile], the “Velocity of dynein-2-driven microtubule gliding” value (from here on “Velocity”) is 126 ± 17 nm/s.

In the case of `O=c1[nH]c2cc(-c3ccc(Cl)cc3Cl)nn2c2ccccc12` [Compound 3, 2-(2,4-dichlorophenyl)-4H-pyrazolo[1,5-a]quinazolin-5-one], the “Velocity” value is “comparable to that observed in the presence of ciliobrevin D”.

On to `N#Cc1c(-c2ccc(Cl)cc2Cl)nn2c1[nH]c(=O)c1ccccc12` [Compound 4, 2-(2,4-dichlorophenyl)-5-oxo-4H-pyrazolo[1,5-a]quinazoline-3-carbonitrile], for which the “Velocity” value is given as “comparable to that observed in the presence of ciliobrevin D”.

With `N#Cc1c(C2(c3ccc(Cl)cc3)CC2)nn2c1[nH]c(=O)c1ccccc12` [Compound 5, 2-[1-(4-chlorophenyl)cyclopropyl]-5-oxo-4H-pyrazolo[1,5-a]quinazoline-3-carbonitrile], the “Velocity” value was 58 ± 14 nm/s.

Regarding `N#Cc1c(C2(c3ccc(Cl)cc3)CC2)nn2c1[nH]c(=O)c1cc(C(F)(F)F)ccc12` [Compound 6, 2-(1-(4-chlorophenyl)cyclopropyl)-5-oxo-7-(trifluoromethyl)-4,5-dihydropyrazolo[1,5-a]quinazoline-3-carbonitrile], the “Velocity” value stood at 6 ± 2 nm/s and the IC50 turned out to be 2.9 ± 0.6 µM. In addition, the “Improvement in potency of dynein 2 inhibition by cyclization (compound 6 versus compound 9)” value (microtubule gliding assay) is listed as ~ 6 fold.

In the case of `COc1ccc2c(c1)c(=O)[nH]c1c(C#N)c(C3(c4ccc(Cl)cc4)CC3)nn12` [Compound 7, 2-[1-(4-chlorophenyl)cyclopropyl]-7-methoxy-5-oxo-4H-pyrazolo[1,5-a]quinazoline-3-carbonitrile], the “Velocity” value is on record as 128 ± 21 nm/s.

In the case of `N#C/C(C(=O)c1ccc(Cl)cc1Cl)=C1\NC(=O)c2cc(C(F)(F)F)ccc2N1` [Compound 9, (E)-3-(2,4-dichlorophenyl)-3-oxo-2-(4-oxo-6-(trifluoromethyl)-3,4-dihydroquinazolin-2(1H)-ylidene)propanenitrile], the IC50 was 17.7 µM.
